# Experimental data as given in ChEMBL document CHEMBL5120800, “Lathyrane and Jatrophane Diterpenoids from Euphorbia helioscopia Evaluated for Cytotoxicity against a Paclitaxel-Resistant A549 Human Lung Cancer Cell Line” (J Nat Prod, 2022).
# How the values were obtained:
# [1] = Cytotoxicity against human A549/PTX cells assessed as inhibition of cell growth incubated for 72 hrs by MTT assay; type: functional, cell-based
# [2] = tested on: A549; experiment: Cytotoxicity against human A549 cells assessed as inhibition of cell growth incubated for 72 hrs by MTT assay; type: functional, cell-based; conditions: A549, 72 h
smiles,measurement,setting,value
CC(=O)O[C@]12C[C@@H](C)[C@H](OC(=O)c3ccccc3)[C@@H]1/C=C(\C)[C@H](OC(=O)c1ccccc1)CC(=O)C(C)(C)/C=C/[C@@H](C)C2=O,IC50,[1],7.2 µM
same,IC50,[2],> 10 µM
CC(=O)O[C@@H]1[C@H](C)/C=C/C(C)(C)C(=O)C[C@@H](OC(=O)c2ccccc2)/C(C)=C/[C@H]2[C@@H](OC(=O)c3ccccc3)[C@H](C)C[C@]12OC(C)=O [EUPHOSCOPIN C],IC50,[1],6.9 µM
same,IC50,[2],> 10 µM
CC(=O)O[C@H]1C(=O)[C@@]2(C)[C@H]([C@H](OC(=O)c3ccccc3)[C@]3(O)C[C@H](OC(=O)[C@H](O)[C@@H](NC(=O)c4ccccc4)c4ccccc4)C(C)=C1C3(C)C)[C@]1(OC(C)=O)CO[C@@H]1C[C@@H]2O [PACLITAXEL],IC50,[2],0.0675 µM
CC(=O)O[C@@H]1[C@H](C)/C=C/C(C)(C)C(=O)C[C@@H](OC(=O)c2cccnc2)/C(C)=C/[C@H]2[C@@H](OC(=O)c3ccccc3)[C@H](C)C[C@]12OC(C)=O,IC50,[1],9.5 µM
same,IC50,[2],> 10 µM
